# According to patent US9980943B2, “Methods of treating muscular dystrophy” (BOARD OF REGENTS OF THE NEVADA SYSTEM OF HIGHER EDUCATION, …, priority 2013, dated 2018):
# Key:
# Type in all cases: cell-based, mouse
# [1] = test system: α7 integrin (LacZ reporter in α7βgal+/− myoblasts); experiment: Myoblast α7+/LacZ integrin FDG assay (Burkin assay in myoblasts, 96-well); details: α7+/LacZ myoblasts, 96-well
# [2] = test system: α7 integrin (LacZ reporter in α7+/LacZ myotubes); experiment: Myotube α7 integrin FDG assay (Burkin assay in myotubes, 96-well); details: myotubes
# [3] = test system: β-galactosidase in CMV-LacZ C2C12 myotubes; experiment: CMV-LacZ secondary screen in C2C12 myotubes (β-Gal stabilizing assay); details: for CMV-LACZ in Myotubes (β-galactosidase activity relative to DMSO): CMV-LacZ C2C12 myotubes, 96-well format; for CMV-LACZ in Myotubes, signal relative to DMSO: C2C12 CMV-LacZ myotubes, fold relative to DMSO
# Summary of the method: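 CMV-LacZ C2C12 line (clonal, FDG-screened); myoblasts/myotubes dosed 0.5–40 μM (0.5, 1, 5, 10, 20, 40 μM); n=2 per point; β-gal stabilization read-out.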
Compound,"Burkin Assay in Myoblasts, value relative to DMSO ([1]; 0.5 uM)","Burkin Assay in Myoblasts, value relative to DMSO ([1]; 1 uM)","Burkin Assay in Myoblasts, value relative to DMSO ([1]; 5 uM)","Burkin Assay in Myoblasts, value relative to DMSO ([1]; 10 uM)","Burkin Assay in Myoblasts, value relative to DMSO ([1]; 20 uM)","Burkin Assay in Myoblasts, value relative to DMSO ([1]; 40 uM)",Burkin Assay in Myotubes (signal relative to DMSO) ([2]; 0.5 uM),Burkin Assay in Myotubes (signal relative to DMSO) ([2]; 1 uM),Burkin Assay in Myotubes (signal relative to DMSO) ([2]; 5 uM),Burkin Assay in Myotubes (signal relative to DMSO) ([2]; 10 uM),Burkin Assay in Myotubes (signal relative to DMSO) ([2]; 20 uM),Burkin Assay in Myotubes (signal relative to DMSO) ([2]; 40 uM),CMV-LACZ in Myotubes (β-galactosidase activity relative to DMSO) ([3]; 5 uM),CMV-LACZ in Myotubes (β-galactosidase activity relative to DMSO) ([3]; 10 uM),CMV-LACZ in Myotubes (β-galactosidase activity relative to DMSO) ([3]; 20 uM),CMV-LACZ in Myotubes (β-galactosidase activity relative to DMSO) ([3]; 40 uM),"CMV-LACZ in Myotubes, signal relative to DMSO ([3]; 5 uM)","CMV-LACZ in Myotubes, signal relative to DMSO ([3]; 10 uM)","CMV-LACZ in Myotubes, signal relative to DMSO ([3]; 20 uM)","CMV-LACZ in Myotubes, signal relative to DMSO ([3]; 40 uM)",also measured
COc1cccc(N2C(=O)CC(N3CCc4ccccc4C3)C2=O)c1 (centres unmarked) [MLS000769322-01],0.9535,0.9354,0.9653,1.0771,1.006,0.955,0.9609,1.055,1.1195,1.165,1.067,1.019,0.8609,1.02,1.118,1.091,,,,,
CCNC(=O)CSc1nc(-c2ccc(F)cc2)cs1 [MLS000772194-01],1.096,1.059,1.055,1.082,1.098,1.149,0.9782,0.9192,0.9654,1.072,0.9904,0.7651,,,,,1.068,0.9234,1.056,0.9968,
CCOc1ccc(NC(=O)CN2C(=O)NC(CCSC)C2=O)cc1 (centres unmarked) [MLS000772430-01],,,,,,,,,,,,,0.8183,0.9094,0.8956,1.037,,,,,"fold induction at 0.5 µM ([1]; Mus musculus, Myoblast, 48 h, 0.5 uM, read-out: Burkin Assay in Myoblasts, value relative to DMSO): 0.973; fold induction at 1 µM ([1]; Mus musculus, Myoblast, 48 h, 1 uM, read-out: Burkin Assay in Myoblasts, value relative to DMSO): 0.936; fold induction at 5 µM ([1]; Mus musculus, Myoblast, 48 h, 5 uM, read-out: Burkin Assay in Myoblasts, value relative to DMSO): 1.01; fold induction at 10 µM ([1]; Mus musculus, Myoblast, 48 h, 10 uM, read-out: Burkin Assay in Myoblasts, value relative to DMSO): 1.05; fold induction at 20 µM ([1]; Mus musculus, Myoblast, 48 h, 20 uM, read-out: Burkin Assay in Myoblasts, value relative to DMSO): 0.881; fold induction at 40 µM ([1]; Mus musculus, Myoblast, 48 h, 40 uM, read-out: Burkin Assay in Myoblasts, value relative to DMSO): 0.896; fold induction at 0.5 µM ([2]; Mus musculus, Myotube, 0.5 uM, read-out: Burkin Assay in Myotubes (signal relative to DMSO)): 1.03; fold induction at 1 µM ([2]; Mus musculus, Myotube, 1 uM, read-out: Burkin Assay in Myotubes (signal relative to DMSO)): 1.28; fold induction at 5 µM ([2]; Mus musculus, Myotube, 5 uM, read-out: Burkin Assay in Myotubes (signal relative to DMSO)): 1.04; fold induction at 10 µM ([2]; Mus musculus, Myotube, 10 uM, read-out: Burkin Assay in Myotubes (signal relative to DMSO)): 1.25; fold induction at 20 µM ([2]; Mus musculus, Myotube, 20 uM, read-out: Burkin Assay in Myotubes (signal relative to DMSO)): 1.26; fold induction at 40 µM ([2]; Mus musculus, Myotube, 40 uM, read-out: Burkin Assay in Myotubes (signal relative to DMSO)): 1.05"
CCNC(=O)COC(=O)c1cc(-c2ccco2)nc2ccccc12 [MLS000772580-01],0.8487,0.9736,0.8554,0.8513,0.7938,0.7251,0.851,0.8999,1.323,0.9474,0.9413,0.8535,,,,,0.8986,1.0933,1.029,1.088,
O=C(Nc1ccccc1)Nc1ccc(Cl)c(S(=O)(=O)N2CCOCC2)c1 [MLS000773700-01],0.9335,1.0257,0.9059,0.8657,0.9227,0.8721,1.008,1.019,0.7118,0.9516,0.9895,0.472,1.126,1.1166,0.929,0.4092,,,,,
CN(C)S(=O)(=O)c1ccc(C(=O)Nc2nc3ccccc3[nH]2)cc1 [MLS000774940-01],0.9309,0.8928,1.095,1.043,0.858,0.7761,0.9469,0.9777,1.01,0.9908,1.084,0.878,0.954,0.8604,1.171,1.005,,,,,
Cc1ccc(N(CCC(=O)O)S(=O)(=O)c2cccc(C(F)(F)F)c2)cc1 [MLS000775793-01],1.103,1.076,1.109,1.076,0.9292,0.9895,0.9391,0.8833,0.8722,0.6224,0.9965,0.9508,,,,,0.855,1.012,0.9323,1.021,
O=C(O)CCCNC(=O)CCn1nnc2ccccc2c1=O [MLS000806880-01],,,,,,,,,,,,,,,,,0.9654,1.13,0.9145,1.0655,"Burkin Assay in Myoblasts, signal relative to DMSO ([1]; 0.5 uM): 1.097; Burkin Assay in Myoblasts, signal relative to DMSO ([1]; 1 uM): 1.129; Burkin Assay in Myoblasts, signal relative to DMSO ([1]; 5 uM): 1.009; Burkin Assay in Myoblasts, signal relative to DMSO ([1]; 10 uM): 0.9524; Burkin Assay in Myoblasts, signal relative to DMSO ([1]; 20 uM): 0.9957; Burkin Assay in Myoblasts, signal relative to DMSO ([1]; 40 uM): 1.056; Burkin Assay in Myotubes, α7 integrin LacZ reporter signal relative to DMSO ([2]; 0.5 uM): 0.735; Burkin Assay in Myotubes, α7 integrin LacZ reporter signal relative to DMSO ([2]; 1 uM): 0.8731; Burkin Assay in Myotubes, α7 integrin LacZ reporter signal relative to DMSO ([2]; 5 uM): 0.9094; Burkin Assay in Myotubes, α7 integrin LacZ reporter signal relative to DMSO ([2]; 10 uM): 0.996; Burkin Assay in Myotubes, α7 integrin LacZ reporter signal relative to DMSO ([2]; 20 uM): 1.057; Burkin Assay in Myotubes, α7 integrin LacZ reporter signal relative to DMSO ([2]; 40 uM): 0.9353"
